Values of other authors, collected in patent publication US20210330903A1, “Multiple Dose Nasal Spray of Naloxone” (Navinta III Inc, priority 2020, published 2021).

## C=CCN1CC[C@]23c4c5ccc(O)c4O[C@H]2C(=O)CC[C@@]3(O)[C@H]1C5.Cl [Naloxone hydrochloride, 17-Allyl-4,5α-epoxy-3,14 dihydroxymorphinan-6-one hydrochloride]
alcohol
  solubility in alcohol: slightly soluble
chloroform
  solubility in chloroform: practically insoluble
Dilute acids
  solubility in dilute acids: soluble
ether
  solubility in ether: practically insoluble
Strong alkali
  solubility in strong alkali: soluble
water
  solubility in water: soluble
